Consider nine compounds from publication PMC10818523, “Novel Flurbiprofen Derivatives as Antioxidant and Anti-Inflammatory Agents: Synthesis, In Silico, and In Vitro Biological Evaluation” (Molecules, 2024).

A word on the IC50: it is the concentration that gives 50% inhibition.

The nature of series [1]: Experimental determination of lipophilicity (RM), reversed-phase thin-layer chromatography. It counts as physicochemical. To be noted: dimensionless, from thin-layer chromatography Rf. From the text: Lipophilicity can be assessed through either calculation or experimental methods. In our study, we determined the lipophilicity of the resulting flurbiprofen derivatives using a practical approach, employing reversed-phase thin-layer chromatography, a technique previously reported by Hadjipavlou-Litina.
The method employed for assessing the lipophilicity of flurbiprofen derivatives followed the procedure outlined by Hadjipavlou-Litina.

A short description of series [2]: Hydrogen peroxide scavenging activity (HPSA). To be noted: antioxidant activity, H2O2 scavenging, 10 min at 37 °C, mean ± SD of triplicates. It counts as biochemical. As to the method: The Manolov et al. method was used to assess the hydrogen peroxide scavenging capability. A 43 mM solution of H2O2 was prepared in potassium phosphate buffer solution (0.2 M, pH 7.4). The analysis of the samples was carried out as follows: in test tubes, 0.6 mL H2O2 (43 mM), 1 mL sample or reference compounds with different concentrations (20–1000 µg/mL), and 2.4 mL potassium phosphate buffer solution were mixed. The mixture was stirred and incubated in the dark for 10 min at 37 °C. Absorbance was measured at 230 nm with a spectrophotometer (Camspec M508, Leeds, UK) against a blank solution containing phosphate buffer and H2O2 without the sample. Ascorbic acid and quercetin were used as reference compounds. The percentage HPSA of the samples was evaluated by comparing with a blank sample and calculated using the following formula: I,%(HPSA)=Ablank−(ATS−ACS)/Ablank×100 where Ablank is the absorbance of the blank sample, ACS is the absorbance of the control sample, and ATS is the absorbance of the test sample.
(§1) All of the analyses were made in triplicates. Data were expressed as mean ± SD. The level of significance was set at p < 0.05. The mean IC50 value was estimated based on three replicates by interpolating the graphical dependence of activity on concentration. Statistical program SPSS 19.0 software was used for data analysis by one-way ANOVA followed by Duncan’s post hoc test to evaluate differences between mean values of activities (SPSS Inc., Chicago, IL, USA).

A further series has as its target T1, bovine trypsin (Bos taurus, UniProt P00760).
T1 sequence (P00760 24-246): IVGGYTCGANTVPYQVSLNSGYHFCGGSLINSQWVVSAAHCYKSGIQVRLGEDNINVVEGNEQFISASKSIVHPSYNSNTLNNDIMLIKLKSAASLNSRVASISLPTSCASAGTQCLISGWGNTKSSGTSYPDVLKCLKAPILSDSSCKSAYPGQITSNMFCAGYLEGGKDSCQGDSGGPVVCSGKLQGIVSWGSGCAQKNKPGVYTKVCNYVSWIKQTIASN
Nature of the series: Antitryptic activity (ATA). To be noted: human albumin as substrate, mean ± SD of triplicates. The series is classed as biochemical. As to the method: This method is known also as an in vitro anti-arthritic activity. The analysis was performed according to the method of Oyedapo and Femurewa with minor modification as described by Manolov et al.. The reaction mixture was containing 2 mL 0.06 mg/mL bovine trypsin, 1 mL Tris-HCl buffer (20 mM, pH 7.4) and 1 mL test sample or reference (in methanol) of different concentrations (20-1000 μg/mL). The mixture was incubated at 37 °C for 5 min. Then 1 mL of human albumin (4% v/v) was added. The mixture was incubated for an additional 20 min. To the mixture 2 mL of 70% perchloric acid was added for termination of the reaction. The cloudy suspension was cooled and centrifuged at 5000 rpm for 20 min. The absorbance of the supernatant was measured at 280 nm with a spectrophotometer ([…], UK) against control solution. The control solution was sample or reference in methanol with different concentrations. Ibuprofen and flurbiprofen were used as reference compounds. The analysis was performed three times. The percentage of antitryptic activity (ATA) of the samples was evaluated by comparing with a blank sample. The blank sample is prepared as the test sample but with a small exception-perchloric acid is added before albumin. %ATA=Ablank-ATS-ACS/Ablank×100 where Ablank is the absorbance of the blank sample, ACS is the absorbance of the control solution (test sample in different concentrations) and ATS is the absorbance of the test samples. All of the analyses were made in triplicates. Data were expressed as mean ± SD. The level of significance was set at p < 0.05. The mean IC50 value was estimated based on three replicates by interpolating the graphical dependence of activity on concentration. Statistical program SPSS 19.0 software was used for data analysis by one-way ANOVA followed by Duncan's post hoc test to evaluate differences between mean values of activities (SPSS Inc., Chicago, IL, USA).

The target in another series is human albumin (Homo sapiens, UniProt P02768). Nature of the series: Inhibition of albumin denaturation (IAD). It counts as biochemical. To be noted: heated at 70 °C for 15 min, mean ± SD of triplicates. Here is the method:
In vitro analysis of anti-inflammatory activity was assessed as inhibition of albumin denaturation (IAD). The analysis was performed according Manolov et al. method. The experiment was performed with human albumin. The solution of albumin (1%) was prepared in distilled water (pH 7.4). The tested and the reference compounds were dissolved firstly in PBS resulting in 1000 μg/mL stock solutions. Then a series of working solutions with different concentrations (20–500 μg/mL) in PBS were prepared. The reaction mixture was containing 2 mL test sample/reference of different concentrations and 1 mL albumin (1%). The mixture was incubated at 37 °C for 15 min and then heated at 70 °C for 15 min in water bath. After cooling, the turbidity was measured at 660 nm with a spectrophotometer (Camspec M508, Leeds, UK). Ibuprofen and flurbiprofen were used as reference compounds. The experiment was performed three times. Percentage inhibition of albumin denaturation (IAD) was calculated against the control. The control sample is albumin with the same concentration dissolved in distilled water. %IAD=Ablank−Asample/Ablank×100
as §1

The subject of a further series is rats. Put plainly: Prediction of acute rat toxicity by GUSAR software. To be noted: from predicted rat LD50, IV.

Like-named read-outs stand apart in the source and are kept apart here.

Sequence of human albumin (P02768 25-609): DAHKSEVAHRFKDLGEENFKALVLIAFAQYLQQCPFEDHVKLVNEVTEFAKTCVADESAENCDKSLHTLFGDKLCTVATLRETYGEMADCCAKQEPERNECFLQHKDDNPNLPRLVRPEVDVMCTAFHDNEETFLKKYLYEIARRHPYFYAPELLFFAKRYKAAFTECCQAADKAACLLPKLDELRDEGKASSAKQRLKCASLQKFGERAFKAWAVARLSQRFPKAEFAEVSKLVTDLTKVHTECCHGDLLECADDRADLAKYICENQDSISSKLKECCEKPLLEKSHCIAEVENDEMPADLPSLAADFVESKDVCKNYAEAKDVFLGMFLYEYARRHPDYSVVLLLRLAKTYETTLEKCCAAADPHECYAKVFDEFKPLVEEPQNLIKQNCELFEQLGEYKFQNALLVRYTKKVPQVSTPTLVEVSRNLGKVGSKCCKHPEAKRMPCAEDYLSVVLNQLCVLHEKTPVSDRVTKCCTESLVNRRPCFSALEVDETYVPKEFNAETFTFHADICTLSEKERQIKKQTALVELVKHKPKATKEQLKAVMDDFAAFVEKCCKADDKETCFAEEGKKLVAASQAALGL

`CC(C(=O)O)c1ccc(-c2ccccc2)c(F)c1` (centres unmarked) [Flu, flurbiprofen]: the “RM ± SD” value in series [1] is on record as 1.37 ± 0.02. Also, the IC50 in series [2] came out at 1160 ± 64 µM; against bovine trypsin it was 441 ± 36 µM; against human albumin (IAD IC50 ± SD), 339 µM.

Turning to `COc1ccc(CCNC(=O)C(C)c2ccc(-c3ccccc3)c(F)c2)cc1` (centres unmarked) [Compound 4c, 2-(2-fluoro-[1,1′-biphenyl]-4-yl)-N-(4-methoxyphenethyl)propanamide], the “RM ± SD” value in series [1] came out at 1.21 ± 0.02. Also, the IC50 came to 144 ± 10 µM in series [2], 203 ± 14 µM against bovine trypsin and 196.9 ± 0.5 µM at human albumin (read-out: IAD IC50 ± SD).

Consider `CC(C)Cc1ccc(C(C)C(=O)O)cc1` (centres unmarked) [Ibu, ibuprofen, reference compound], for which the “RM ± SD” value in series [1] stood at 1.11 ± 0.01. Also, the figures for the IC50 (in series [2]; against bovine trypsin) were 618 ± 25 µM and 1260 ± 44 µM, respectively.

In the case of `COc1cccc(CCNC(=O)C(C)c2ccc(-c3ccccc3)c(F)c2)c1` (centres unmarked) [Compound 4b, 2-(2-fluoro-[1,1′-biphenyl]-4-yl)-N-(3-methoxyphenethyl)propanamide], the “RM ± SD” value in series [1] is reported as 1.13 ± 0.02. The figures for the IC50 (in series [2]; at bovine trypsin; on human albumin (read-out: IAD IC50 ± SD)) were 201 ± 3.3 µM, 208 ± 15 µM and 188 ± 3 µM, respectively.

`CC(C(=O)NCCc1cccc(Cl)c1)c1ccc(-c2ccccc2)c(F)c1` (centres unmarked) [Compound 4e, N-(3-chlorophenethyl)-2-(2-fluoro-[1,1′-biphenyl]-4-yl)propanamide]: the “RM ± SD” value in series [1] is recorded as 1.41 ± 0.03. In addition, the IC50 in series [2] came to 199 ± 9 µM; at bovine trypsin it was 198 ± 14 µM; on human albumin (read-out: IAD IC50 ± SD) it was 193 ± 2.2 µM. The “toxicity relative to flurbiprofen, intravenous” value in the series with rats is reported as “four times greater toxicity than flurbiprofen”.

Consider `O=c1c(O)c(-c2ccc(O)c(O)c2)oc2cc(O)cc(O)c12` [Qrc, quercetin], for which the values for the IC50 in series [2] and in series [2] (listed as quercetin) were 229 ± 6 µM and 229 µM, respectively.

With `COc1ccc(CCNC(=O)C(C)c2ccc(-c3ccccc3)c(F)c2)cc1OC` (centres unmarked) [Compound 4d, N-(3,4-dimethoxyphenethyl)-2-(2-fluoro-[1,1′-biphenyl]-4-yl)propanamide], the “RM ± SD” value in series [1] was found to be 1.33 ± 0.02. Moreover, the IC50 in series [2] was determined as 199.5 ± 1.3 µM; on bovine trypsin, 215 ± 5 µM; on human albumin (read-out: IAD IC50 ± SD), 173.74 ± 0.13 µM.

On to `O=C1O[C@H]([C@@H](O)CO)C(O)=C1O` [AA, ascorbic acid], for which the figures for the IC50 in series [2] and in series [2] (listed as ascorbic acid) were 141 ± 2 µM and 141 µM, respectively.

With `CC(C(=O)NCCc1ccccc1)c1ccc(-c2ccccc2)c(F)c1` (centres unmarked) [Compound 4a, 2-(2-fluoro-[1,1′-biphenyl]-4-yl)-N-phenethylpropanamide], in series [1], the “RM ± SD” value is recorded as 1.24 ± 0.02. For the same compound, the IC50 worked out at 223 ± 6 µM in series [2], 2260 ± 73 µM at bovine trypsin and 198 ± 2.3 µM on human albumin (read-out: IAD IC50 ± SD).
